Assays:
mice [1] = assay: Hot Plate Assay in mice; assay type: in vivo
Protocol: (§1) Antinociceptive activity of compounds of the invention was determined in vivo in a PBQ writhing model and in the hot plate test in rodents. Inhibition of PBQ (phenyl-.rho.-benzoquinone) induced writhing in mice is an assessment of both central and peripherally-mediated analgesia. For experimental protocol see Sigmund et al., Proc. Soc. Ex. Biol. Med., 95, p. 729 (1957) which is incorporated herein by reference. Centrally-mediated analgesia was determined by the inhibition of a hot plate response in mice. For experimental protocol see G. Woolfe and A. Macdonald, J. Pharmacol. Exp. Ther., 80, p. 300 ([…]) which is incorporated herein by reference. Assays measuring opioid receptor binding affinities for μ, δ and κ receptors as well as GPI and MVD assays were determined through experimental protocol set out in Schiller et al., Biophys. Res. Commun., 85, p. 1322 (1975); Rothman et al, Peptides, Vol 11, pp 311-331, 1990; Kaffa et al, Peptides 15(3), 401-404, 1994; Fowler et al, Neurochem. Int 24(5), 401-426, 1994; and Leslie F., Pharmacological Review 39(3), 197-249, 1987 incorporated herein by reference.
For this test, CD #1 male mice (Charles River) weighing between 20-25 grams were used. The mice were weighed, identified, and randomized into groups of 10.
The mice were usually treated by subcutaneous injection of the compound (or the standard or vehicle) or by oral gavage.
The mice were evaluated individually for a latency reaction time on the hot plate. The temperature of the hot plate (Sorel, model DS37) was set at 55° C. […] The reaction time was recorded when one of these signs was noted. The cut off for latency response was 15 seconds so as to prevent damage to the paw tissue. […] The time intervals are typically 30, 60 or 120 minutes (or other).
For each time reading, the average reaction time of the control group was multiplied by 1.5. The reaction time of each treated animal was compared to the "control average×1.5".

mice [2] = assay: Phenylquinone (PBQ) Writhing Assay; assay type: in vivo
Protocol: as §1
Phenylquinone Writhing Assay
The test was performed using CD #1 male mice (Charles River) weighing between 19 and 25 g. Animals were maintained in constant conditions of light, temperature and humidity. The animals were acclimatized for three days prior to experimentation. […]

Question: With `CC12CCCCSC(Cc3ccc(O)cc31)C2N` (centres unmarked) [compound #9, 5,6,7,8,9,11,12-heptahydro-3-hydroxy-5-methyl-10-thia-5,11 methanobenzocyclodecen-13-amine] as the compound, how does the latency response time (mice [1]; 2.5 mg/kg, subcutaneous, after 15 minutes (FIG. 1)) read?
Answer: almost maximum

Question: And the reaction time (mice [1]; 5 mg/kg, subcutaneous (FIG. 1), control approximately 7 seconds)?
Answer: about 19 seconds

Question: What about the “latency response to radiant heat, dose dependence” value (mice [1]; subcutaneous (FIG. 1)) of the same compound?
Answer: dose dependent latency response

Question: And the “inhibition of the writhing response (PBQ)” value (mice [2]; oral administration one hour prior to PBQ (FIG. 2))?
Answer: dose-dependent inhibition

Question: What about the “inhibition of the writhing response (PBQ)” value (mice [2]; s.c. administration twenty minutes prior to PBQ (FIG. 3)) of the same compound?
Answer: dose-dependent inhibition
